In brackets after ≈: the same amount, converted by molar mass. Entries after “also recorded” stand apart in the source; their conditions may differ.

The record followed here is PMC9077470 (RSC Advances, 2018).

The nature of series [1]: Partition coefficients in n-octanol/phosphate buffer (pH 7.4). The conditions noted are these: means ± SD, n = 3. It is filed as physicochemical. The procedure:
The phosphate buffer and octanol were mutually saturated at 20–22 °C before use. Samples were dissolved in the aqueous phase and the n-octanol/phosphate buffer mixtures were shaken for 24 h to reach a distribution equilibrium. The volumes of each phase were chosen so that the solute concentration in the aqueous phase, before and after distribution, could readily be measured using HPLC method. The partition coefficients (P) were calculated from the following equation: [drawing 1] where Ci and Cw represent the solute concentrations in the aqueous buffer phase before and after distribution, respectively, Vw represents the volume of the aqueous phase, and Vo is the volume of the octanol phase.[16]

Series [2] in a line: Aqueous solubility (equilibrium, distilled water). The class given is physicochemical. The conditions noted are these: 25 °C, thermodynamic from solid, 25 ± 2 °C, means ± SD, n = 3, read-out: S (aqueous solubility). The procedure: The mixtures were placed in an ultrasonic water bath for 10 min and then shaken for 24 h to establish a saturation equilibrium. Upon filtration, the filtrate was diluted with an appropriate amount of water and the mixture was analyzed by HPLC, the concentration of each compound in its saturated solution was calculated.

Series [3] in a line: In vitro incubation with stomach contents of rats. The conditions noted are these: rat stomach contents homogenate, pH 1.2, 37 °C, after 2 h of incubation. The class given is in vitro ADME. The procedure:
(§1) After anesthetized with diethyl ether, rats were sacrificed and their contents of stomach and small intestine were collected and homogenized respectively, the homogenate was diluted with buffer solution (pH 1.2 for stomach contents, pH 6.8 for small intestine contents) to 20% (w/v). […] After 0.25, 0.5, 1.0, 1.5, 2.0, 3.0 and 4.0 h of incubation, 200 μL of samples were collected and replaced with the same volume of blank homogenate, then samples were centrifuged at 13 000 rpm for 5 min, filtered with membrane filter, and analyzed by HPLC. The residual contents of each prodrug in homogenate were calculated and the hydrolysis curves were drawn.

Series [4] can be described thus: In vitro incubation with small intestine contents of rats. The class given is in vitro ADME. The conditions noted are these: rat small intestine contents homogenate, pH 6.8, 37 °C, after 4 h of incubation. The procedure: as §1
Series [5] can be described thus: In vivo incubation in the colon of rats. The conditions noted are these: injected into tied rat colon, 6 h. The procedure:
6 hours later, rats were sacrificed and their colon contents were separated and homogenized in 40 mL of phosphate buffer (pH 7.4). The homogenate was sonicated for 5 min and centrifuged at 13 000 rpm for 5 min, then 0.2 mL of the supernatant was collected and mixed with 0.8 mL of methanol. Finally, samples were centrifuged, filtered and analyzed by HPLC. The residual contents of each prodrug in colon contents were calculated, and the hydrolysis ratio was calculated by the following equation: [drawing 2] where Wr is the residual amount of prodrugs in the colon contents and Wi is the initial amount of prodrugs that administered to rats.

Series [6] has as its system TNBS-induced experimental colitis. The series is described as follows: TNBS-induced colitis: body weight, survival rates, overall effect. The class given is in vivo, mice. Conditions: for body weight of mice / therapeutic effects on the TNBS-induced UC (overall): TNBS colitis mice; for body weight of mice: once daily 5 days, equivalent to 100 mg kg^−1 5-ASA; for therapeutic effects on the TNBS-induced UC (overall): Ols-DB as enema, others i.g.; for ameliorative effects on TNBS-induced colitis (overall), compared with positive control: vs positive control, oral administration. As to the method:
Colitis was induced according to the previous study.[18,19] Briefly, after 12 h of fasting, mice were anesthetized with intraperitoneal pentobarbital sodium (35 mg kg^-1) before the induction of colitis. 0.1 mL of 50% (v/v) ethanol contained 2.5% (v/v) TNBS was instilled into the colon 3.5-4 cm from the anus by a gavage needle. The mice were kept in a head-down position for 30 s to prevent leakage of the intracolonic instillation. Mice in the control group received normal saline instead of TNBS solution, a physical mixture of 5-ASA and sodium butyrate was used as the positive control. […] The treatments were given once daily for 5 continuous days starting 24 hours after the induction of colitis. After the induction of colitis, the body weight of each mice was recorded daily, and the curves of weight changes for each group were drawn to evaluate the TNBS-induced colitis. Meanwhile, the death of mice in each group was recorded daily and the final survival rates of mice were calculated.

Series [7] shares this test system. The series is described as follows: TNBS-induced colitis: colon index and colonic damage score (CDS). Conditions: for colon index, compared with positive control: vs positive control (5-ASDB p < 0.05, Ols-DBP p < 0.01); for CDS, compared with positive control: vs positive control, p < 0.05. It is filed as in vivo, mice. The procedure:
Colitis was induced according to the previous study.[18,19] Briefly, after 12 h of fasting, mice were anesthetized with intraperitoneal pentobarbital sodium (35 mg kg^-1) before the induction of colitis. 0.1 mL of 50% (v/v) ethanol contained 2.5% (v/v) TNBS was instilled into the colon 3.5-4 cm from the anus by a gavage needle. The mice were kept in a head-down position for 30 s to prevent leakage of the intracolonic instillation. Mice in the control group received normal saline instead of TNBS solution, a physical mixture of 5-ASA and sodium butyrate was used as the positive control. […] The treatments were given once daily for 5 continuous days starting 24 hours after the induction of colitis. At the end of the experiment, all mice were sacrificed and their entire colons were excised, opened longitudinally and washed carefully with normal saline. After dried with filter papers, colons were weighted and the length of colons was measured and recorded. The colon index was calculated as follows:Colon index (g dm^-1) = weight of colon/length of colon The colonic damage score (CDS) of mice in each group was evaluated according to the following criteria: 0, no ulcer and colitis; 1, no ulcer, local congestion; 2, ulcers, no local congestion; 3, ulcer and colitis at only one site; 4, ulcer and colitis at more than one sites; 5, over 2 cm of ulcer surface.[24]

The subject of series [8] is SOD, MDA, GSH, GSH-Px in colonic tissues. The experiment in a line: TNBS-induced colitis: levels of SOD, MDA, GSH and GSH-Px in colonic tissues. It is filed as in vivo, mice. The conditions noted are these: for GSH-Px activities in the colon / MDA levels in the colon / SOD activities in the colon / levels of GSH in the colon: vs TNBS group; for GSH-Px activities in the colon / MDA levels in the colon / SOD activities in the colon / levels of GSH in the colon / effect on decreasing the MDA level, compared with positive control: p < 0.01; for effect on increasing GSH, compared with positive control / effect on increasing GSH-Px, compared with positive control / effect on increasing SOD, compared with positive control / effect on decreasing the MDA level, compared with positive control: vs positive control. As to the method:
Colitis was induced according to the previous study.[18,19] Briefly, after 12 h of fasting, mice were anesthetized with intraperitoneal pentobarbital sodium (35 mg kg^-1) before the induction of colitis. 0.1 mL of 50% (v/v) ethanol contained 2.5% (v/v) TNBS was instilled into the colon 3.5-4 cm from the anus by a gavage needle. The mice were kept in a head-down position for 30 s to prevent leakage of the intracolonic instillation. Mice in the control group received normal saline instead of TNBS solution, a physical mixture of 5-ASA and sodium butyrate was used as the positive control. […] The treatments were given once daily for 5 continuous days starting 24 hours after the induction of colitis. Colon tissue samples were homogenized with normal saline, the homogenate (10%, w/w) was centrifuged at 13 000 rpm for 15 min, and the resulting supernatant was diluted to 1% (w/w) for further assay. The protein levels of the colon homogenate were detected by a BCA protein assay kit. Then the activities of SOD and GSH-Px, and the levels of MDA and GSH of samples in each group were measured by the assay kits according to the provider's instructions.

Turning to `CCCC(=O)OCC(COC(=O)CCC)OC(=O)c1cc(N)ccc1O` [5-ASDB, 2-(1,3-dibutyroxypropyl)-5-aminosalicylate], in series [1], the “P (partition coefficient)” value was found to be 3.81 ± 0.35; the logP (usually the decadic logarithm of the partition coefficient of the neutral form, usually between octanol and water) at 24 h amounted to 0.58 ± 0.04. The solubility – broadly, the dissolved amount per volume that the medium holds – at 24 h in series [2] is 80 ± 20 mg/mL (≈ 218 mM). Moreover, in series [3], the “residual content of prodrug in stomach contents” value stood at 63.3%. Also, the “residual content of prodrug in small intestine contents” value in series [4] was found to be 94.7%. Also, the “hydrolysis ratio after in vivo incubation in rat colons” value (“hydrolysis ratio” for short) in series [5] is “almost hydrolyzed completely”. In series [6], the “body weight of mice” value was “slight weight loss at first and gained gradually from the 2nd day”; the “therapeutic effects on the TNBS-induced UC (overall)” value (shortened to “therapeutic effects”) is recorded as “certain therapeutic effects”; the “ameliorative effects on TNBS-induced colitis (overall), compared with positive control” value is “significantly greater than the positive control”. Further, in series [7], the “colon index, compared with positive control” value is given as “significantly better than the positive control” and the “CDS, compared with positive control” value was “significantly greater than the positive control”. For the same compound, in series [8], the “GSH-Px activities in the colon” value is “increased”, the “MDA levels in the colon” value is “significantly decreased”, the “SOD activities in the colon” value is reported as “increased” and the “levels of GSH in the colon” value is recorded as “significantly higher”. Further, in series [8], the “effect on increasing GSH, compared with positive control” value was “significantly greater effects”; the “effect on increasing GSH-Px, compared with positive control” value is listed as “significantly greater effects”; the “effect on increasing SOD, compared with positive control” value was “significantly greater effects”; the “effect on decreasing the MDA level, compared with positive control” value was “significantly greater effects”.
`CCCC(=O)Oc1ccc(N=Nc2ccc(OC(=O)CCC)c(C(=O)O)c2)cc1C(=O)O` [Ols-DB, 3,3′-azobis(6-hydroxybenzoicacid)dibutyrate]: in series [1], the “P (partition coefficient)” value is recorded as 2.10 ± 0.24 and the logP at 24 h is 0.32 ± 0.05. Besides, the solubility at 24 h in series [2] was 270 ± 30 mg/mL (≈ 610 mM). Also, the “residual content of prodrug in stomach contents” value in series [3] is reported as “almost completely decomposed”. The “residual content of prodrug in small intestine contents” value in series [4] is listed as 5.5%. In series [5], the “hydrolysis ratio” value is given as “almost hydrolyzed completely”. Also, in series [6], the “body weight of mice” value was “slight weight loss at first and gained gradually from the 2nd day”; the “therapeutic effects” value is “just as effective as 5-ASDB and Ols-DBP; also recorded: certain therapeutic effects”. Moreover, the “CDS, compared with positive control” value in series [7] is “significantly greater than the positive control”. In series [8], the “GSH-Px activities in the colon” value is “increased”, the “MDA levels in the colon” value was “significantly decreased”, the “SOD activities in the colon” value was “increased” and the “levels of GSH in the colon” value is on record as “significantly higher”.
On to `CCCC(=O)OCC(COC(=O)CCC)OC(=O)c1cc(N=Nc2ccc(O)c(C(=O)OC(COC(=O)CCC)COC(=O)CCC)c2)ccc1O` [Ols-DBP], for which, in series [1], the “P (partition coefficient)” value worked out at 2.94 ± 0.37 and the logP at 24 h stood at 0.47 ± 0.06. Also, the solubility at 24 h in series [2] came to 190 ± 40 mg/mL (≈ 260 mM). Besides, the “residual content of prodrug in stomach contents” value in series [3] came out at 57.5%. The “residual content of prodrug in small intestine contents” value in series [4] was 90.4%. Also, the “hydrolysis ratio” value in series [5] is reported as “almost hydrolyzed completely”. In series [6], the “body weight of mice” value is “slight weight loss at first and gained gradually from the 2nd day”; the “therapeutic effects” value is recorded as “certain therapeutic effects”; the “ameliorative effects on TNBS-induced colitis (overall), compared with positive control” value is reported as “significantly greater than the positive control”. Moreover, in series [7], the “colon index, compared with positive control” value is reported as “significantly better than the positive control” and the “CDS, compared with positive control” value is on record as “significantly greater than the positive control”. For the same compound, in series [8], the “GSH-Px activities in the colon” value is “increased”, the “MDA levels in the colon” value was “significantly decreased”, the “SOD activities in the colon” value is listed as “increased” and the “levels of GSH in the colon” value is “significantly higher”. In series [8], the “effect on increasing GSH, compared with positive control” value is recorded as “significantly greater effects”; the “effect on increasing GSH-Px, compared with positive control” value is recorded as “significantly greater effects”; the “effect on increasing SOD, compared with positive control” value is reported as “significantly greater effects”; the “effect on decreasing the MDA level, compared with positive control” value is reported as “significantly greater effects”.
